Measured values reported in patent US11453660B2, “Androgen receptor and glucocorticoid receptor modulators” (ONCOSTELLAE, S.L., priority 2017, dated 2022).

What was measured:
human androgen receptor = target: T1, human androgen receptor (Homo sapiens, UniProt P10275, T878A); test: Human Androgen Receptor Binding (radioligand binding, LnCap prostate cancer cell line); settings: LnCap cells, displacement of [^3H]-methyltrienolone, 2 hours at 37° C.; read-out: AR LNCaP
T1 construct: endogenously expressed human androgen receptor using the LnCap prostate cancer cell line; endogenous in cells; host or cells: LNCaP prostate cancer cell line (whole cells)
T1 sequence (P10275 1-920 T878A): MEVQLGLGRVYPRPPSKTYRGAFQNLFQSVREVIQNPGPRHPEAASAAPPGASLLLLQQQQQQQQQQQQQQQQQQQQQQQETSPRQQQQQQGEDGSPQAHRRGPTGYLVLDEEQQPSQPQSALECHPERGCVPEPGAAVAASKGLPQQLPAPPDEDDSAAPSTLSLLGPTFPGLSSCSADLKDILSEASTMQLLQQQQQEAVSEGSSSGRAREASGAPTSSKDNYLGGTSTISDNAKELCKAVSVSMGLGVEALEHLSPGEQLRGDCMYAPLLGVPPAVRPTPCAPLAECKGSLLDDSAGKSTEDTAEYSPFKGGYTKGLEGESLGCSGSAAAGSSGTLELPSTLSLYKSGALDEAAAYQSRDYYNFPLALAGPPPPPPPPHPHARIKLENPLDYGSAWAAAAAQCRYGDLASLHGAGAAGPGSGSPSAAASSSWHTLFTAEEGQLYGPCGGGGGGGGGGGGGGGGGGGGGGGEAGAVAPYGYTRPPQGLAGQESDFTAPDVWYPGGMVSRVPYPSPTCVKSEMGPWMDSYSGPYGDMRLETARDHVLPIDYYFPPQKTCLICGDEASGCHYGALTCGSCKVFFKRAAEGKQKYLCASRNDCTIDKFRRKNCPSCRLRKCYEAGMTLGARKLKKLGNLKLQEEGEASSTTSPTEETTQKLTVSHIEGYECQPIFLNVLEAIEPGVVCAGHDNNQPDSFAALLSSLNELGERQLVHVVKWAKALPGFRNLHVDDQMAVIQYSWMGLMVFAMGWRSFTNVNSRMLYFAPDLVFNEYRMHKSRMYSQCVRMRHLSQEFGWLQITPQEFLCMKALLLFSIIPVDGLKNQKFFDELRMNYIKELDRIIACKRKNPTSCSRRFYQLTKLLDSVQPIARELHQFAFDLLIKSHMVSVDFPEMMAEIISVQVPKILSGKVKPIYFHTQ
Summary of the method: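 Whole-cell displacement of [3H]-methyltrienolone from endogenous AR (T878A) in LnCap cells, in RPMI with 0.1% BSA and triamcinolone acetonide. Compounds 10 μM to 0.1 nM in 1:10 steps, 2 h at 37 °C; cells washed, SDS-lysed, bound radioactivity by scintillation counting for IC50.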

[1] = target: T2, Human Glucocorticoid Receptor (Homo sapiens, UniProt P04150); test: Competition Binding in IM-9 Human Glucocorticoid Receptor (GR IM-9); settings: cytosol from IM-9 cell line, 1.5 nM [3H]-Dexamethasone, 4° C. for 6 hours
T2 construct: endogenous in cells; host or cells: cytosol from IM-9 cell line
T2 sequence (P04150 1-777): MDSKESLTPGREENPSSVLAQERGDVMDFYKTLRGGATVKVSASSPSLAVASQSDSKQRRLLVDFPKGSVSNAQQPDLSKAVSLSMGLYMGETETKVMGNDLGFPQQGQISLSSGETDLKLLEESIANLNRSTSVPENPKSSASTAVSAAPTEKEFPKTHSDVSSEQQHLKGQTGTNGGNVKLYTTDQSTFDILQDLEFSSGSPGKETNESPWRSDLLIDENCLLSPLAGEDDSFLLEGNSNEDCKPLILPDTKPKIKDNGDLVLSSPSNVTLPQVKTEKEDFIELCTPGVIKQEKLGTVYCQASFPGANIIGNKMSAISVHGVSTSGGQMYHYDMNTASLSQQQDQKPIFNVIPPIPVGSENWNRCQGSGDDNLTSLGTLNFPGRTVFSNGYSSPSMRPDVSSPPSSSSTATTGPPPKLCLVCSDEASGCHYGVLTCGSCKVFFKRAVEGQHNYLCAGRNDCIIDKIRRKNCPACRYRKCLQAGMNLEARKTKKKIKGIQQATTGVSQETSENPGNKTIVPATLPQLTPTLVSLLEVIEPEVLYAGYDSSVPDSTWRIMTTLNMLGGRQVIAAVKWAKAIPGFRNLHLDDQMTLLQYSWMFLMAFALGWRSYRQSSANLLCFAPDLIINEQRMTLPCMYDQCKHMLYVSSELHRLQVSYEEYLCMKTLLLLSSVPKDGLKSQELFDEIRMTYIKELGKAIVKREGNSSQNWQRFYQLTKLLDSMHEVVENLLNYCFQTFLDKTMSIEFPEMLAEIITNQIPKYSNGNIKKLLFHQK
Summary of the method: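 Radioligand competition using 100 μg IM-9 cell cytosol and 1.5 nM [3H]-dexamethasone, incubated 6 h at 4° C in TES/molybdate buffer, pH 7.4. Filtration on PEI-treated GF/B filters, scintillation counting; nonspecific binding defined with 10 μM triamcinolone.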

| IC50 (human androgen receptor) | IC50 [1] | Structure (SMILES) |
| --- | --- | --- |
| 100 to 1000 nM | < 100 nM | COC(=O)C1=C(C)NC(N)=C(C(=O)OC2CCCC2)C1c1csc2c(C#N)cccc12 (stereo not drawn) [Example D27, 3-Cyclopentyl 5-methyl 2-amino-4-(7-cyanobenzo[b]thiophen-3-yl)-6-methyl-1,4-dihydropyridine-3,5-dicarboxylate] |
| 100 to 1000 nM | < 100 nM | CC(=O)C1=C(C)NC(N)=C(C(=O)OCc2cccc(F)c2)C1c1csc2c(C#N)cccc12 (stereo not drawn) [Example D32, 3-Fluorobenzyl 5-acetyl-2-amino-4-(7-cyanobenzo[b]thiophen-3-yl)-6-methyl-1,4-dihydropyridine-3-carboxylate] |
| 100 to 1000 nM | < 100 nM | COC(=O)C1=C(C)NC(N)=C(C(=O)OCC2CC2)C1c1csc2c(C#N)cc(F)cc12 (stereo not drawn) [Example D39, 3-(Cyclopropylmethyl) 5-methyl 2-amino-4-(7-cyano-5-fluorobenzo[b]thiophen-3-yl)-6-methyl-1,4-dihydropyridine-3,5-dicarboxylate] |
| ≥ 1000 nM | < 100 nM | CC1=C(C(=O)OCC2CC2)C(c2csc3c(C#N)cccc23)C(C(=O)OCC2CC2)=C(N)N1 (stereo not drawn) [Example D46, Bis(cyclopropylmethyl) 2-amino-4-(7-cyanobenzo[b]thiophen-3-yl)-6-methyl-1,4-dihydropyridine-3,5-dicarboxylate] |
| 100 to 1000 nM | < 100 nM | C#CCOC(=O)C1=C(C)NC(N)=C(C(=O)OCC2CC2)C1c1csc2c(C#N)cccc12 (stereo not drawn) [Example D47, 3-(Cyclopropylmethyl) 5-(prop-2-yn-1-yl) 2-amino-4-(7-cyanobenzo[b]thiophen-3-yl)-6-methyl-1,4-dihydropyridine-3,5-dicarboxylate] |
| < 100 nM | < 100 nM | CC(=O)C1=C(C)NC(C2CC2)=C(C(=O)OCc2ccncc2)C1c1csc2c(Br)cccc12 (stereo not drawn) [Example J41, Pyridin-4-ylmethyl 5-acetyl-4-(7-bromobenzo[b]thiophen-3-yl)-2-cyclopropyl-6-methyl-1,4-dihydropyridine-3-carboxylate] |
| < 100 nM | < 100 nM | CC(=O)C1=C(C)NC(C)=C(C(=O)OCc2cccc(-c3ccncc3)c2)C1c1csc2ncccc12 (stereo not drawn) [Example L3, 3-(pyridin-4-yl)benzyl 5-acetyl-2,6-dimethyl-4-(thieno[2,3-b]pyridin-3-yl)-1,4-dihydropyridine-3-carboxylate] |

Further lines, the compound ahead of its results:

| Structure (SMILES) | IC50 (human androgen receptor) | IC50 [1] |
| --- | --- | --- |
| CC(=O)C1=C(C)NC(N)=C(C(=O)OCC2CCCCC2)C1c1csc2c(C#N)cccc12 (stereo not drawn) [Example D30, Cyclohexylmethyl 5-acetyl-2-amino-4-(7-cyanobenzo[b]thiophen-3-yl)-6-methyl-1,4-dihydropyridine-3-carboxylate] | 100 to 1000 nM | < 100 nM |
| CC1=C(C(=O)C2CC2)C(c2csc3c(C#N)cccc23)C(C(=O)OCC2CC2)=C(N)N1 (stereo not drawn) [Example D31, Cyclopropylmethyl 2-amino-4-(7-cyanobenzo[b]thiophen-3-yl)-5-(cyclopropanecarbonyl)-6-methyl-1,4-dihydropyridine-3-carboxylate] | 100 to 1000 nM | < 100 nM |
| CC1=C(C(=O)OC2CC2)C(c2csc3c(C#N)cccc23)C(C(=O)OCC2CC2)=C(N)N1 (stereo not drawn) [Example D37, 5-Cyclopropyl 3-(cyclopropylmethyl) 2-amino-4-(7-cyanobenzo[b]thiophen-3-yl)-6-methyl-1,4-dihydropyridine-3,5-dicarboxylate] | 100 to 1000 nM | < 100 nM |
| COC(=O)C1=C(C)NC(N)=C(C(=O)OC(C)C)C1c1csc2c(C#N)cccc12 (stereo not drawn) [Example D41, 3-Isopropyl 5-methyl 2-amino-4-(7-cyanobenzo[b]thiophen-3-yl)-6-methyl-1,4-dihydropyridine-3,5-dicarboxylate] | 100 to 1000 nM | < 100 nM |
| COC(=O)C1=C(C)NC(N)=C(C(=O)OCC(C)(C)C)C1c1csc2c(C#N)cccc12 (stereo not drawn) [Example D43, 5-Methyl 3-neopentyl 2-amino-4-(7-cyanobenzo[b]thiophen-3-yl)-6-methyl-1,4-dihydropyridine-3,5-dicarboxylate] | 100 to 1000 nM | < 100 nM |
| COC(=O)C1=C(C2CC2)NC(C)=C(C(C)=O)C1c1csc2ncccc12 (stereo not drawn) [Example J23, Methyl 5-acetyl-2-cyclopropyl-6-methyl-4-(thieno[2,3-b]pyridin-3-yl)-1,4-dihydropyridine-3-carboxylate] | < 100 nM | 100 to 1000 nM |
| COC(=O)C1=C(C2CC2)NC(C)=C(C(C)=O)C1c1csc2c(Br)cccc12 (stereo not drawn) [Example J26, Methyl 5-acetyl-4-(7-bromobenzo[b]thiophen-3-yl)-2-cyclopropyl-6-methyl-1,4-dihydropyridine-3-carboxylate] | < 100 nM | < 100 nM |
| CC(=O)C1=C(C)NC(C2CC2)=C(C(=O)OCc2ccc(F)cc2)C1c1csc2ncccc12 (stereo not drawn) [Example J42, 4-fluorobenzyl 5-acetyl-2-cyclopropyl-6-methyl-4-(thieno[2,3-b]pyridin-3-yl)-1,4-dihydropyridine-3-carboxylate] | 100 to 1000 nM | < 100 nM |
| CC(=O)C1=C(C)NC(C)=C(C(=O)OCc2ccc(-c3ccncc3)cc2)C1c1csc2ncccc12 (stereo not drawn) [Example L1, 4-(pyridin-4-yl)benzyl 5-acetyl-2,6-dimethyl-4-(thieno[2,3-b]pyridin-3-yl)-1,4 dihydropyridine-3-carboxylate] | ≥ 1000 nM | < 100 nM |
| CC(=O)C1=C(C)NC(C)=C(C(=O)OCc2ccc(-c3cccnc3)cc2)C1c1csc2ncccc12 (stereo not drawn) [Example L2, 4-(pyridin-3-yl)benzyl 5-acetyl-2,6-dimethyl-4-(thieno[2,3-b]pyridin-3-yl)-1,4-dihydropyridine-3-carboxylate] | ≥ 1000 nM | < 100 nM |
| CC(=O)C1=C(C)NC(C)=C(C(=O)OCc2cccc(-c3cccnc3)c2)C1c1csc2ncccc12 (stereo not drawn) [Example L4, 3-(pyridin-3-yl)benzyl 5-acetyl-2,6-dimethyl-4-(thieno[2,3-b]pyridin-3-yl)-1,4-dihydropyridine-3-carboxylate] | < 100 nM | < 100 nM |
